# Assay results taken from US5705649A, “Protein staining compositions and methods” (Promega Corporation, priority 1995, dated 1998).
# How the values were obtained:
# [1] = system: Promega Mid-Range Molecular Weight Standards; test: Post-electrophoretic detection of protein using NBODY derivatives; conditions: crude dye solution in 5% acetic acid, 20% ethanol, one hour
# Method: Promega Mid-Range Molecular Weight Standards were diluted and heated as described in Example 27 to produce solutions containing 125, 25, 5 and 1 ng of protein per band in 10 microliters of solution. A 10% Tris Glycine, precast polyacrylamid gel from Novex Corp. (San Diego, Calif., USA, Cat. No. EC 6075.) was loaded with 10 microliters of the just described, diluted molecular weight standard solutions in lanes so that two lanes, each with the same diluted standard solution, were separated by a blank lane. The gel was developed using conditions recommended by the manufacturer and following development, the gel was cut in the blank lane. The segments were placed in 50 ml of 5% acetic acid, 20% ethanol. Six hundred microliters of the NBODY-C12 reaction mixture from Example 40 was added to the solution with one of the segments of a pair (of lanes with the same protein molecular weight standard solution) and three hundred microliters of the NBODY-C16 reaction mixture from Example 40 was added to the solution with the other segment of the same pair. After one hour of incubation, the gel segments were photographed on a transilluminator as described in example 27. Protein bands were detected in the lanes containing the 125 and 25 ng of protein per band using this method and the crude dye solutions from Example 40.
# [2] = system: Promega Mid Range Molecular Weight Standards; test: In-gel staining with octyl and dodecyl derivatives of MDPF; conditions: stain stock in cathode buffer and wells
# Method: (§1) Two 10-well, 12% gels were made as described in Example 5 and were loaded with diluted Promega Mid Range Molecular Weight Standards to produce lanes containing 200, 100, 80, 60, 40, 20, 10, and 5 ng of protein per band following fractionation by electrophoresis. These protein levels were applied to the gels in 10 μl of loading buffer described in Example 5 and then 10 μl of a 1:100 dilution of the derivative stock solution (Example 33) into a solution of 20% glycerol, 1% sodium dodecyl sulfate was added to the wells. The gels were then run as described in Example 5 except that 0.5 ml of derivative stain stock was added to the cathode buffer in the gel and the Promega Green 1 dye was omitted from the solution. The gels were placed on a transilluminator following electrophoresis and were observed visually and photographed as described above. Staining of the protein bands was seen down to 80 ng of protein per band for the dodecyl derivative for all proteins and, for the 31 kdalton standard (carbonic anhydrase) down to 60 ng/band. Staining of the bands was seen to 60 ng/band for all proteins with the octyl derivative, with the carbonic anhydrase being detectable down to 40 ng per band. Therefore both stains can be used for in-gel staining of proteins.
# carbonic anhydrase = test: as above; conditions: 31 kdalton standard; stain stock in cathode buffer and wells
# Method: as §1
# [3] = system: Promega Mid Range Molecular Weight Standards; test: Post-electrophoretic staining of gels with octyl and dodecyl derivatives of MDPF
# Method: A fifteen well, 12% gel was made as described in example 5 and was loaded with diluted Promega Mid Range Molecular Weight Standards to produce lanes containing samples having 200, 100, 80, 60, 40, 20 and 10 ng of protein per band. The gel was run as described in example 5 except that Promega Green 1 was not added to the cathode buffer. After electrophoresis, the gel was cut between lanes to produce gel segments containing fractionated protein samples at each of the concentrations listed above and these were placed in 30% methanol for 25-30 min at room temperature. The stock stain solutions of Example 33 were then diluted into distilled water at a concentration of 0.5% (v/v), and 50 ml of these solutions were used to stain the gels. After 1 hr incubation, the gels were visualized and photographed using a transilluminator. […] The gels were then placed in 5% methanol and allowed to destain overnight.
# After overnight destaining, the gel segments were again placed upon a transilluminator, visualized and photographed. […] Nonetheless, these derivatives can be used for sensitive post-electrophoretic staining of proteins in gels.
# [4] = system: Promega Mid-Range Molecular Weight Markers; test: In-gel staining with dodecyl dansyl stain; conditions: 0.1% (v/v) stain in cathode buffer
# Method: In order to determine if in-gel staining with dodecyl dansyl stain could be performed, a gel containing the concentrations of reagents in the gel buffers and running buffers listed in Example 5 was made and run as described in Example 5 with two exceptions: 1) dodecyl dansyl stain (in 50 ml ethanol, Example 28) was added to the cathode buffer at 0.1% (v/v) instead of Promega Green 1; 2) Promega Mid-Range Molecular Weight markers were diluted into 1× loading buffer as described in Example 5 and were loaded on the gel to produce lanes containing each protein at concentrations from 1000 ng/lane to 3.1 ng/lane. Following electrophoresis, the gel was placed directly on a transilluminator and visualized and photographed as described above. […] Thus, staining while the gel is running can be performed with the dodecyl dansyl stain and is particularly favorable for protein species with low mobilities.
# [5] = system: Promega Mid Range Molecular Weight standard; test: Optimization of staining with dodecyl dansyl stain, acetic acid/ethanol fixing and staining
# Method: Two 12% SDS-PAGE gels were run with diluted Promega Mid Range Molecular Weight standard to produce samples of proteins at 20, 10, and 5 ng of protein per band present in the gels. The gels were made as in Example 27 and proteins were fractionated on the gels in a BioRad Miniprotean II gel system as recommended by the manufacturer. The gels were cut to produce segments of gel containing three lanes of samples containing one lane each of the protein concentrations described above and placed for 15 min in 50 ml of one of the following fixative solutions: 30% ethanol, 20% acetic acid; 40% ethanol, 10% acetic acid; 40% ethanol, 20% acetic acid; 50% ethanol, 10% acetic acid; and 50% ethanol, 20% acetic acid. After the 15 min incubation, the gels were transferred into another 50 ml of the same fixative solution containing 50 μl of dodecyl dansyl stain solution (in 50 ml ethanol, Example 28). After 3 hrs., the segments were placed in 50 ml of 50 mM Tris-Cl, pH8.0, for 5 min and then were visualized on a transilluminator and photographed.
# After visualization, the segments were returned to their respective staining solutions and allowed to incubate overnight. The following morning, the segments were visualized and photographed directly on a transilluminator without prior incubation in a different solution.
# [6] = system: Promega Mid Range Molecular Weight Standards; test: Post-electrophoretic detection of protein with purified dansyl derivatives
# Method: Samples of the eluates from purification of the derivatives were diluted 20-fold with ethanol and the absorption of the resulting solutions from 400 to 220 nm was measured. The absorption of the solutions at 328 nm was used as an indication of the concentration of the derivative in the staining studies in Example 27.
# Several SDS-PAGE minigels were made as described in Experiments with Gene Fusions, Silhavy, Berman, Enquist, supra, using the SDS concentrations described by the authors. Samples of Promega Mid Range Molecular Weight Standards were diluted into the loading solution described in the reference above to produce solutions containing 200, 100, 50, 25, and 12.5 ng of each protein species in 10 μl of solution. These solutions were loaded onto the gels and the samples were fractionated in the gels by application of 10 mA per gel until the tracking dye for the samples reached the bottom of the gel. The gels were then rinsed 1 min in distilled water, 15 min in 10% trichloracetic acid (w/v), and then for 15 min in 10% methanol (v/v). The gel segments, approximately 5×6 cm containing the fractionated standard, were then transferred to a 2% ethanol solution (50 ml) containing 0.05 OD328 -equivalent of each of the dansyl derivatives (see Example 26).
# The gel segments were returned to their respective staining solutions and were incubated overnight. The following morning, all of the gel segments were again visualized on the transilluminator and photographed as described above. […] In general, relatively equivalent staining of bands was obtained as determined by the strength of the fluorescent signal observed for the various fractionated species.
# [7] = system: Promega Mid-Range Molecular Weight Standards; test: Optimization of post-electrophoretic staining with dodecyl dansyl stain
# Method: In order to determine if alternative staining conditions would improve the detection of protein by fluorescent staining with the dodecyl dansyl stain, the following experiment was performed. Two 12% SDS-PAGE minigels from Bio-Rad Corporation were used to fractionate samples of diluted Promega Mid-Range Molecular Weight Standards which were loaded into alternate lanes of the gel to produce protein bands containing 25 and 5 ng of each protein per band in adjacent lanes. The gels were run as recommended by the manufacturer in Bio-Rad Miniprotean II electrophoresis units and sliced to produce two lane segments containing one lane each of the 25 and 5 ng sample lanes. One slice was placed in each of the following solutions (50 ml) followed by incubation of the segment in a second 50 ml of the solution containing 200 μl of dodecyl dansyl derivative solution (in 50 ml ethanol) of Example 28: distilled water; 1% acetic acid; 1% trichloroacetic acid; 5M sodium chloride; 0.5M Tris base; 0.5M ammonium bicarbonate, pH 5.0; 2M Tris pH8.0; 0.05M sodium hydroxide; and 10% ethanol. The gels were allowed to stain overnight at room temperature and then were observed on a transilluminator to allow visualization and photography of the fluorescently stained bands as described in Example 27. […] It was thought that this is due to an inability of the particular stain derivative used to fluoresce under the highly acidic condition produced in the trichloroacetic acid solution.
# In order to determine if the stain remained intact in these solutions and to standardize the conditions for the stains, the gel segments were then incubated in 50 ml of distilled water. After 1 hr, the segments were re-observed and re-photographed. […] Thus, staining sensitivity is dependent upon staining conditions and mildly acidic conditions appear to improve the sensitivity of staining.
# [8] = system: Promega Mid Range Molecular Weight Standards; test: Detection of fractionated protein in SDS-PAGE gels using dansyl derivatives made in acetone
# Method: Several 15-well, SDS-PAGE minigels were poured as described in Example 27 and loaded with Promega Mid Range Molecular Weight Standards diluted as described in Example 27 to provide samples containing 1000, 300, 100, 50, 25, 12.5, and 6.25ng of each protein per band in separate lanes of the gel. The samples were fractionated by application of 20 mA per gel until the tracking dye reached the bottom of the gel. All the gels were placed in 10% trichloroacetic acid for 5 min and then incubated for 10 min in 10% (v/v) methanol. The gels were then incubated in a 10% methanol solution containing 2% (v/v) of the derivative eluates (dissolved in 50 ml ethanol) described in Example 28. The gels were transferred to a transilluminator and both visualized and photographed after two hours of staining. The following observations were made. Only the lanes containing 1000 and 300ng of protein per band were visible in the gel incubated with the n-butyl dansyl derivative. The lanes containing the 1000, 300, 100, 50, 25ng per band were visible in the gel incubated with the n-hexyl derivative as were some of the bands in the 12.5 ng per band lane.
# After overnight incubation in the stain solutions, the gels were re-observed and rephotographed.
# The gels were then placed in 1% acetic acid to remove any unbound stain and rephotographed after three hours of incubation in this solution at room temperature.
# [9] = after overnight destaining in 5% methanol
compound,measurement,setting,value
CCCCCCCCCCCCCCCCNC(=O)CCCCCNc1ccc([N+](=O)[O-])c2nonc12 [NBODY-C16],lowest protein per band detected,[1],25 ng
CCCCCCCCCCCCN=C1C(c2ccccc2)=COC1(OC)c1ccccc1 (stereo not drawn) [dodecyl MDPF derivative],"lowest protein per band stained, all proteins",[2],80 ng
same,lowest carbonic anhydrase per band stained,carbonic anhydrase,60 ng
same,lowest protein per band stained,[3]; [9],20 ng
CCCCCCCCCCCCNS(=O)(=O)c1cccc2c(N(C)C)cccc12 [dodecyl dansyl derivative],detection of protein species migrating more than halfway through the gel,[4],not easily detected
same,lowest protein per band seen (many of the heavier molecular weight species),[4],12.5 ng
same,visibility of protein bands,"[5]; 3 hrs, 30 or 40% ethanol and 10 or 20% acetic acid, 20, 10, 5 ng per band",faintly visible
same,level of protein per band detected,[5]; overnight staining in ethanol/acetic acid,≤ 5 ng
same,staining quality compared to the amino or butyl derivatives,[6],much better stains compared to the amino or butyl derivatives
same,lowest protein amount with visible bands (several of the bands),[6]; 15 min staining,100 ng
same,visibility of protein bands,[6]; overnight staining,easily visible
same,staining,"[7]; all other staining solutions, overnight",No other staining solution allowed visualization of the fractionated protein species at this point
same,protein per band displayed as fluorescent bands,"[7]; stain in 0.5M ammonium bicarbonate, pH 5.0, overnight",25 ng
same,protein per band displayed as fluorescent bands,"[7]; stain in 1% acetic acid, overnight",25 ng
same,staining,"[7]; stain in 1% trichloroacetic acid, overnight",neither protein detection nor background staining
same,staining,"[7]; stain in 2M Tris pH 8.0, overnight",much weaker staining
same,staining after distilled water,"[7]; stained in 0.5M ammonium bicarbonate, pH 5.0, then 1 hr water",Staining was seen
same,staining after distilled water,"[7]; stained in 1% acetic acid, then 1 hr water",greater fluorescence
same,staining after distilled water,"[7]; stained in 1% trichloroacetic acid, then 1 hr water",greater fluorescence
same,staining after distilled water,"[7]; stained in 2M Tris pH 8.0, then 1 hr water",Staining was seen
same,lowest protein per band visible,"[8]; 2% (v/v) eluate in 10% methanol, two hours of staining",300 ng
same,protein per band at which most of the protein species were visible,"[8]; after 1% acetic acid, three hours",6.25 ng
same,protein per band at which at least some of the bands could be visualized,[8]; overnight staining,12.5 ng
CCCCCCCCN=C1C(c2ccccc2)=COC1(OC)c1ccccc1 (stereo not drawn) [octyl MDPF derivative],"lowest protein per band stained, all proteins",[2],60 ng
same,lowest carbonic anhydrase per band stained,carbonic anhydrase,40 ng
same,lowest protein per band stained (most of the species),"[3]; 0.5% (v/v) stain in water, 1 hr",20 ng
same,retention of fluorescent staining,[3]; [9],almost all of the fluorescent staining of the octyl MDPF derivative stained gel had been lost
